Measured values as given in US8952024B2, “Herbicidal pyrimidone derivatives” (E I du Pont de Nemours and Company, priority 2009, dated 2015).

Assays:
Test in all cases: Test D pre-/postemergence plant response
Type in all cases: in vivo
[1] = tested on: Italian ryegrass (Lolium multiflorum)
Procedure, shortened: (§1)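 Ratings come from greenhouse-grown weeds in loam and sand treated pre- or postemergence (postemergence height 2 to 18 cm). Evaluation after 14–21 days, visual, relative to controls, on a 0–100 control scale.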

[2] = tested on: Surinam grass (Brachiaria decumbens)
Procedure, shortened: as §1

[3] = tested on: bluegrass (annual bluegrass, Poa annua)
Procedure, shortened: as §1

[4] = tested on: chickweed (common chickweed, Stellaria media); settings: Postemergence, 125 g ai/ha; scale 0 to 100 (0 no effect, 100 complete control)
Procedure, shortened: as §1

[5] = tested on: field bindweed (Convolvulus arvensis)
Procedure, shortened: as §1

[6] = tested on: goosegrass (Eleusine indica)
Procedure, shortened: as §1

[7] = tested on: groundsel (common groundsel, Senecio vulgaris); settings: Postemergence
Procedure, shortened: as §1

[8] = tested on: johnsongrass (Sorghum halepense)
Procedure, shortened: as §1

kochia (Kochia scoparia) = tested on: kochia (Kochia scoparia)
Procedure, shortened: as §1

[9] = tested on: large crabgrass (Digitaria sanguinalis)
Procedure, shortened: as §1

[10] = tested on: morningglory (pitted morningglory, Ipomoea lacunosa)
Procedure, shortened: as §1

[11] = tested on: naked crabgrass (Digitaria nuda)
Procedure, shortened: as §1

[12] = tested on: nutsedge (purple nutsedge, Cyperus rotundus)
Procedure, shortened: as §1

[13] = tested on: purslane (common purslane, Portulaca oleracea)
Procedure, shortened: as §1

[14] = tested on: spanishneedles (Bidens bipinnata)
Procedure, shortened: as §1

[15] = Postemergence, 16 g ai/ha, scale 0 to 100
[16] = Postemergence, 31 g ai/ha, scale 0 to 100
[17] = Postemergence, 125 g ai/ha, scale 0 to 100 (0 no effect, 100 complete control)
[18] = Postemergence, 62 g ai/ha, scale 0 to 100 (0 no effect, 100 complete control)
[19] = Preemergence, 16 g ai/ha, scale 0 to 100, 0 no effect, 100 complete control
[20] = Preemergence, 31 g ai/ha, scale 0 to 100 (0 no effect, 100 complete control)
[21] = Preemergence, 125 g ai/ha, scale 0 to 100
[22] = Preemergence, 62 g ai/ha, scale 0 to 100

Cc1ccc(F)c(-n2c(-c3ccccc3)ncc(C(=O)C3=C(O)CCCC3=O)c2=O)c1 [Compound 51]
30: Plant response rating, Morningglory [10, 22]
90: Plant response rating, Surinam Grass [2, 19]
10: Plant response rating, Purslane [13, 15]
98: Plant response rating, Surinam Grass [2, 20] | Plant response rating, Groundsel ([7]; 31 g ai/ha, scale 0 to 100) | Plant response rating, Spanishneedles [14, 21]
70: Plant response rating, Surinam Grass [2, 18] | Plant response rating, Chickweed [4] | Plant response rating, Johnsongrass [8, 17] | Plant response rating, Johnsongrass [8, 21] | Plant response rating, Spanishneedles [14, 17]
65: Plant response rating, Goosegrass [6, 16] | Plant response rating, Goosegrass [6, 17] | Plant response rating, Goosegrass [6, 18] | Plant response rating, Morningglory [10, 17] | Plant response rating, Crabgrass, Naked [11, 17] | Plant response rating, Purslane [13, 22]
60: Plant response rating, Surinam Grass [2, 16] | Plant response rating, Field Bindweed [5, 17] | Plant response rating, Johnsongrass [8, 18] | Plant response rating, Spanishneedles [14, 18]
35: Plant response rating, Goosegrass [6, 15] | Plant response rating, Johnsongrass [8, 16] | Plant response rating, Crabgrass, Large [9, 16] | Plant response rating, Crabgrass, Large [9, 17] | Plant response rating, Crabgrass, Large [9, 18] | Plant response rating, Crabgrass, Naked [11, 15] | Plant response rating, Purslane [13, 17] | Plant response rating, Purslane [13, 18] | Plant response rating, Spanishneedles [14, 15]
85: Plant response rating, Groundsel ([7]; 16 g ai/ha, scale 0 to 100)
15: Plant response rating, Nutsedge, Purple [12, 18]
40: Plant response rating, Goosegrass [6, 22] | Plant response rating, Goosegrass [6, 21]
100: Plant response rating, Groundsel ([7]; 125 g ai/ha, scale 0 to 100 (0 no effect, 100 complete control)) | Plant response rating, Groundsel ([7]; 62 g ai/ha, scale 0 to 100 (0 no effect, 100 complete control)) | Plant response rating, Morningglory [10, 21] | Plant response rating, Purslane [13, 21]
20: Plant response rating, Field Bindweed [5, 18] | Plant response rating, Goosegrass [6, 19] | Plant response rating, Goosegrass [6, 20] | Plant response rating, Johnsongrass [8, 15] | Plant response rating, Johnsongrass [8, 22] | Plant response rating, Kochia (kochia (Kochia scoparia); [17]) | Plant response rating, Morningglory [10, 16] | Plant response rating, Morningglory [10, 18] | Plant response rating, Nutsedge, Purple [12, 17] | Plant response rating, Purslane [13, 16]
5: Plant response rating, Field Bindweed [5, 15] | Plant response rating, Field Bindweed [5, 16] | Plant response rating, Kochia (kochia (Kochia scoparia); [15]) | Plant response rating, Kochia (kochia (Kochia scoparia); [16]) | Plant response rating, Kochia (kochia (Kochia scoparia); [18]) | Plant response rating, Crabgrass, Large [9, 20] | Plant response rating, Crabgrass, Large [9, 22] | Plant response rating, Crabgrass, Large [9, 21] | Plant response rating, Nutsedge, Purple [12, 22] | Plant response rating, Nutsedge, Purple [12, 21]
0: Plant response rating, Ryegrass, Italian [1, 15] | Plant response rating, Ryegrass, Italian [1, 16] | Plant response rating, Ryegrass, Italian [1, 17] | Plant response rating, Ryegrass, Italian [1, 18] | Plant response rating, Ryegrass, Italian [1, 19] | Plant response rating, Ryegrass, Italian [1, 20] | Plant response rating, Ryegrass, Italian [1, 21] | Plant response rating, Bluegrass [3, 15] | Plant response rating, Bluegrass ([3]; Postemergence, 31 g ai/ha, scale 0 to 100 (0 no effect, 100 complete control)) | Plant response rating, Bluegrass [3, 17] | Plant response rating, Bluegrass [3, 18] | Plant response rating, Bluegrass [3, 19] | Plant response rating, Bluegrass [3, 20] | Plant response rating, Bluegrass [3, 22] | Plant response rating, Bluegrass [3, 21] | Plant response rating, Field Bindweed [5, 19] | Plant response rating, Field Bindweed [5, 20] | Plant response rating, Field Bindweed [5, 22] | Plant response rating, Field Bindweed [5, 21] | Plant response rating, Johnsongrass [8, 19] | Plant response rating, Johnsongrass [8, 20] | Plant response rating, Kochia (kochia (Kochia scoparia); [19]) | Plant response rating, Kochia (kochia (Kochia scoparia); [22]) | Plant response rating, Crabgrass, Large [9, 19] | Plant response rating, Morningglory [10, 15] | Plant response rating, Morningglory [10, 19] | Plant response rating, Morningglory [10, 20] | Plant response rating, Crabgrass, Naked [11, 19] | Plant response rating, Crabgrass, Naked [11, 20] | Plant response rating, Crabgrass, Naked [11, 22] | Plant response rating, Crabgrass, Naked [11, 21] | Plant response rating, Nutsedge, Purple [12, 15] | Plant response rating, Nutsedge, Purple [12, 16] | Plant response rating, Nutsedge, Purple [12, 19] | Plant response rating, Nutsedge, Purple [12, 20] | Plant response rating, Purslane [13, 19] | Plant response rating, Spanishneedles [14, 19] | Plant response rating, Spanishneedles [14, 20]
80: Plant response rating, Surinam Grass [2, 17]
25: Plant response rating, Crabgrass, Large [9, 15]
50: Plant response rating, Surinam Grass [2, 15] | Plant response rating, Kochia (kochia (Kochia scoparia); [21]) | Plant response rating, Crabgrass, Naked [11, 16] | Plant response rating, Purslane [13, 20] | Plant response rating, Spanishneedles [14, 16]
